Results: patent US8710233B2 (Gruenenthal GmbH, priority 2005, dated 2014)

What was measured:
[1] = test system: capsaicin induced hypothermie; experiment: Hypothermie assay in the mouse (capsaicin induced hypothermie); format: in vivo; conditions: mouse, read-out: inhibition hypothermie (n = 5); for inhibition in vivo at 0.1 mg/kg: 0.1 mg/kg body weight po
[2] = test system: formaldehyde induced nociceptive behaviour; experiment: Formaldehyde test in mice, second (late) phase; format: in vivo, mouse; conditions: mouse, read-out: inhibition formaldehyde test (n = 10)

Row | SMILES | inhibition in vivo at 0.1 mg/kg [1] | inhibition in vivo at 0.3 mg/kg ([2]; 0.3 mg/kg body weight po) | inhibition in vivo at 0.3 mg/kg ([1]; 0.3 mg/kg body weight po) | inhibition in vivo at 0.03 mg/kg ([2]; 0.03 mg/kg body weight po)
1 | CC(C(=O)NCc1ccc(C(F)(F)F)nc1OCCC(C)(C)C)c1ccc(NS(C)(=O)=O)c(F)c1 (centres unmarked) [Example 125] | 5% | 24% | – | –
2 | Cc1ccc(Cl)cc1Nc1nc(C(F)(F)F)ccc1CNC(=O)C(C)c1ccc(NS(C)(=O)=O)c(F)c1 (centres unmarked) [Example 136, N-[2-(5-chloro-2-methyl-phenylamino)-6-trifluoromethyl-pyridin-3-ylmethyl]-2-(3-fluoro-4-methylsulfonamido-phenyl)-propionamide] | – | – | 43% | –
3 | CC(C(=O)NCc1ccc(C(C)(C)C)nc1OC1CCCC1)c1ccc(NS(C)(=O)=O)c(F)c1 (centres unmarked) [Example 234, N-(6-tert-butyl-2-cyclopentyloxy-pyridin-3-ylmethyl)-2-(3-fluoro-4-methylsulfonamido-phenyl)-propionamide] | 19% | – | – | 5%
